Several values for one entry are separate records, joined by “and”; a condition that tells them apart may be missing. Equal values may be shown once. Blank lines part the entries; values can stand above or below the compound they belong to.
Test system: 354836-022-R-J1-PDC multicell spheroid viability
Test: Anticancer human tumor 354836-022-R-J1-PDC patient-derived head and neck squamous cell carcinoma cell line growth inhibition [PI3K]
Details: for viability, T/C: stronger effect = lower value
Method in brief: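 High-throughput combination screen: PI3K inhibitors crossed with targeted small molecules on complex spheroids of tumor cells, HUVEC and MSCs at 37 degrees C, 5% CO2. Top concentration was at or near clinical Cmax (otherwise 10 microM), with half-log decrements.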

[1] = curve of first compound, second compound 0.0316 µM
[2] = curve of first compound, second compound 0.1 µM
[3] = curve of first compound, second compound 0.316 µM
[4] = curve of first compound, second compound 1 µM
[5] = second compound 0.0316 µM, first compound 0.00316 µM
[6] = second compound 0.0316 µM, first compound 0.01 µM
[7] = second compound 0.0316 µM, first compound 0.0316 µM
[8] = second compound 0.0316 µM, first compound 0.1 µM
[9] = second compound 0.1 µM, first compound 0.00316 µM
[10] = second compound 0.1 µM, first compound 0.01 µM
[11] = second compound 0.1 µM, first compound 0.0316 µM
[12] = second compound 0.1 µM, first compound 0.1 µM
[13] = second compound 0.316 µM, first compound 0.00316 µM
[14] = second compound 0.316 µM, first compound 0.01 µM
[15] = second compound 0.316 µM, first compound 0.0316 µM
[16] = second compound 0.316 µM, first compound 0.1 µM
[17] = second compound 1 µM, first compound 0.00316 µM
[18] = second compound 1 µM, first compound 0.01 µM
[19] = second compound 1 µM, first compound 0.0316 µM
[20] = second compound 1 µM, first compound 0.1 µM
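Note: spheroids exposed to agents for seven days before the viability read.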

IC50 [1]: > 0.1 µM
IC50 [2]: > 0.1 µM
IC50 [3]: > 0.1 µM
IC50 [4]: > 0.1 µM
IC50 (curve of first compound, second compound 3.16 µM): > 0.1 µM
IC50 (curve of first compound, second compound 10 µM): > 0.1 µM
Structure (SMILES): Cn1ncnc1[C@H]1c2n[nH]c(=O)c3cc(F)cc(c23)N[C@@H]1c1ccc(F)cc1 + CC(Nc1ncnc2nc[nH]c12)c1cc2cccc(Cl)c2c(=O)n1-c1ccccc1
viability, T/C (second compound 0.0316 µM, first compound 0.000316 µM): 91.2%
viability, T/C (second compound 0.0316 µM, first compound 0.001 µM): 88.5%
viability, T/C [5]: 85.4%
viability, T/C [6]: 108%
viability, T/C [7]: 105%
viability, T/C [8]: 106%
viability, T/C (second compound 0.1 µM, first compound 0.000316 µM): 102%
viability, T/C (second compound 0.1 µM, first compound 0.001 µM): 97.2%
viability, T/C [9]: 98.2%
viability, T/C [10]: 86.4%
viability, T/C [11]: 101%
viability, T/C [12]: 83.1%
viability, T/C (second compound 0.316 µM, first compound 0.000316 µM): 100%
viability, T/C (second compound 0.316 µM, first compound 0.001 µM): 117%
viability, T/C [13]: 98.8%
viability, T/C [14]: 104%
viability, T/C [15]: 92.7%
viability, T/C [16]: 88.6%
viability, T/C (second compound 1 µM, first compound 0.000316 µM): 110%
viability, T/C (second compound 1 µM, first compound 0.001 µM): 96.5%
viability, T/C [17]: 110%
viability, T/C [18]: 96.2%
viability, T/C [19]: 100%
viability, T/C [20]: 79.8%
viability, T/C (second compound 3.16 µM, first compound 0.000316 µM): 108%
viability, T/C (second compound 3.16 µM, first compound 0.001 µM): 107%
viability, T/C (second compound 3.16 µM, first compound 0.00316 µM): 92.1%
viability, T/C (second compound 3.16 µM, first compound 0.01 µM): 96.7%
viability, T/C (second compound 3.16 µM, first compound 0.0316 µM): 99.6%
viability, T/C (second compound 3.16 µM, first compound 0.1 µM): 73.4%
viability, T/C (second compound 10 µM, first compound 0.000316 µM): 94.7%
viability, T/C (second compound 10 µM, first compound 0.001 µM): 87.1%
viability, T/C (second compound 10 µM, first compound 0.00316 µM): 85.8%
viability, T/C (second compound 10 µM, first compound 0.01 µM): 93.3%
viability, T/C (second compound 10 µM, first compound 0.0316 µM): 89.3%
viability, T/C (second compound 10 µM, first compound 0.1 µM): 65.2%

IC50 (curve of compound): > 10 µM
Structure (SMILES): CNC(=O)c1ccc(N2C(=S)N(c3ccc(C#N)c(C(F)(F)F)c3)C(=O)C2(C)C)cc1F
viability, T/C (compound 0.0316 µM): 106% [middle of 4 runs]
viability, T/C (compound 0.1 µM): 102% [middle of 4 runs]
viability, T/C (compound 0.316 µM): 96.3% and 107% (2×) and 116%
viability, T/C (compound 1 µM): 100% [middle of 4 runs]
viability, T/C (compound 3.16 µM): 99.1% and 122% and 104% (2×)
viability, T/C (compound 10 µM): 96.7% [middle of 4 runs]

IC50 (curve of first compound, second compound 0.00316 µM): > 1 µM
IC50 (curve of first compound, second compound 0.01 µM): > 1 µM
IC50 [1]: > 1 µM
IC50 [2]: 0.713 µM
IC50 [3]: 0.425 µM
IC50 [4]: 0.162 µM
Structure (SMILES): CCN1CCN(Cc2ccc(Nc3ncc(F)c(-c4cc(F)c5nc(C)n(C(C)C)c5c4)n3)nc2)CC1 + CC(Nc1ccc2c(c1)OCCn1cc(N3C(=O)OCC3C(F)F)nc1-2)C(N)=O
viability, T/C (second compound 0.00316 µM, first compound 0.00316 µM): 99.9%
viability, T/C (second compound 0.00316 µM, first compound 0.01 µM): 99.6%
viability, T/C (second compound 0.00316 µM, first compound 0.0316 µM): 93.1%
viability, T/C (second compound 0.00316 µM, first compound 0.1 µM): 105%
viability, T/C (second compound 0.00316 µM, first compound 0.316 µM): 104%
viability, T/C (second compound 0.00316 µM, first compound 1 µM): 67.5%
viability, T/C (second compound 0.01 µM, first compound 0.00316 µM): 100%
viability, T/C (second compound 0.01 µM, first compound 0.01 µM): 97.8%
viability, T/C (second compound 0.01 µM, first compound 0.0316 µM): 116%
viability, T/C (second compound 0.01 µM, first compound 0.1 µM): 85%
viability, T/C (second compound 0.01 µM, first compound 0.316 µM): 89.2%
viability, T/C (second compound 0.01 µM, first compound 1 µM): 69.6%
viability, T/C [5]: 95.8%
viability, T/C [6]: 80.7%
viability, T/C [7]: 84.7%
viability, T/C [8]: 101%
viability, T/C (second compound 0.0316 µM, first compound 0.316 µM): 85.7%
viability, T/C (second compound 0.0316 µM, first compound 1 µM): 57.5%
viability, T/C [9]: 89.2%
viability, T/C [10]: 82.9%
viability, T/C [11]: 75.6%
viability, T/C [12]: 94.1%
viability, T/C (second compound 0.1 µM, first compound 0.316 µM): 75.9%
viability, T/C (second compound 0.1 µM, first compound 1 µM): 39.2%
viability, T/C [13]: 65%
viability, T/C [14]: 79.3%
viability, T/C [15]: 67.5%
viability, T/C [16]: 62.1%
viability, T/C (second compound 0.316 µM, first compound 0.316 µM): 61.5%
viability, T/C (second compound 0.316 µM, first compound 1 µM): 22.9%
viability, T/C [17]: 64%
viability, T/C [18]: 54.1%
viability, T/C [19]: 67.6%
viability, T/C [20]: 47.5%
viability, T/C (second compound 1 µM, first compound 0.316 µM): 46.4%
viability, T/C (second compound 1 µM, first compound 1 µM): 14.2%

From PubChem BioAssay AID1963981 (Molecular Pharmacology Branch, DTP, NCI, 2024)
